Reference: patent US20120071475A1, “UREA DERIVATIVES HAVING PI3K-INHIBITING ACTIVITY” (SHIONOGI & CO., LTD., priority 2009, published 2012)
In brackets after ≈: the same amount, converted by molar mass. Like-named read-outs stand apart in the source and are kept apart here.

Key:
PI3Kγ [1] = target: T1, PI3Kγ (Homo sapiens, UniProt P48736); experiment: PI3Kγ inhibitory activity (PI3-kinase HTRF assay, inhibition ratio); type: biochemical; conditions: 0.5 h, compound at 10 μmol/L; read-out: PI3Kg Inhibition Ratio % (10 μM)
Summary of the method: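 Compound at 10 μmol/L preincubated 10 min with PI3Kγ and PIP2 substrate, then reacted with ATP for 30 minutes at room temperature; the compound, substrate and ATP figures as printed (40 μmol/L each) are solution concentrations. HTRF 665/620 nm ratio read after 18 hours. Inhibition ratio calculated against no-compound (100%) and no-enzyme (0%) controls.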

AKT phosphorylation = AKT phosphorylation inhibitory activity in MCP-1 stimulated THP-1 cells (sandwich ELISA); type: cell-based, Human; conditions: Homo sapiens, compound at 1 μmol/L, MCP-1 stimulation, read-out: AKT phosphorylation inhibition ratio
Summary of the method: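 THP-1 cells (6.7×10^6/mL in HBSS) were preincubated with compound at 1 μmol/L for 5 min at 37 °C, then stimulated for 60 s with HBSS containing 1.2 μg/mL MCP-1 and lysed. Phospho-Akt Ser473/AKT1 sandwich ELISA was read at A450. % inhibition: no compound = 100% activity, no MCP-1 = 0%.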

[2] = Solubility test (artificial intestinal juice pH 6.8, 1% DMSO); type: physicochemical; conditions: artificial intestinal juice pH 6.8 with 1% DMSO, fassgf or other biorelevant, kinetic from dmso stock, 25° C.
Experimental: The solubility of a compound was determined under a condition in which 1% DMSO was added. 10 mmol/L compound solution was prepared using DMSO, and then 6 μL of the compound solution was added to 594 μL of artificial intestinal juice in pH 6.8 (to 250 mL of 0.2 mol/L potassium dihydrogen phosphate reagent solution was added 118 mL of 0.2 mol/L NaOH reagent solution and water to provide a final volume of 1000 mL). After standing at 25° C. for 16 hours, the mixed solution was filtered with suction. The filtrate was diluted twice with methanol/water (1/1), and then a concentration in the filtration was measured with HPLC or LC/MS/MS by the absolute calibration method.

[3] = Metabolic stability test (pooled human liver microsome); type: in vitro ADME; conditions: percentage of test compound remained after 30 minutes, pooled human liver microsome 0.5 mg protein/mL, 1 mmol/L NADPH, 37° C.; for hLMS_ox(at 0.5 μM) %: compound 0.5 μM
Summary of the method: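 Pooled human liver microsomes (0.5 mg protein/mL) incubated with compound and 1 mmol/L NADPH at 37° C. in pH 7.4 Tris buffer for 0 or 30 min. Parent quantified by LC/MS/MS after methanol/acetonitrile quench; value is % remaining at 30 min versus 0 min.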

hERG channel (IKr) = target: T2, hERG channel (IKr) (Homo sapiens, UniProt Q12809); experiment: hERG test (whole-cell patch-clamp, IKr in HEK293 cells); type: cell-based; conditions: human, HEK293 cells expressing hERG channel, pH 7.4, inhibition of maximum tail current (IKr); for inhibition at 10 min, 1 µM: compound 1 μM
T2 construct: expressed in transfected cells; host or cells: HEK293
Summary of the method: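 hERG-expressing HEK293 cells, automated whole-cell patch clamp: hold −80 mV, +50 mV for 2 s, then −50 mV for 2 s to record IKr tail current. Compound in extracellular solution (pH 7.4) for 10 min at room temperature; inhibition of maximum tail current calculated versus pre-application and compared with 0.1% DMSO vehicle.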

[4] = system: CYP1A2, CYP2C9, CYP2C19, CYP2D6 and CYP3A4 (one value for the five species); experiment: CYP inhibition test, five CYP species together (5CYPs_IC50; pooled human liver microsome); type: in vitro ADME; conditions: human, microsomes
Description: O-de-ethylation of 7-ethoxyresorufin (CYP1A2), methyl-hydroxylation of tolbutamide (CYP2C9), 4′-hydroxylation of mephenyloin (CYP2C19), O-demethylation of dextromethorphan (CYP2D6), and hydroxylation of terfenadine (CYP3A4), which are typical substrate for metabolic reactions of human main CYP5 molecular species (CYP1A2, 2C9, 2C19, 2D6, and 3A4), were adopted as indexes.
The reaction conditions are as follows: substrate: 0.5 μmol/L of ethoxyresorufin (CYP1A2), 100 μmol/L of tolbutamide (CYP2C9), 50 μmol/L of S-mephenyloin (CYP2C19), 5 μmol/L of dextromethorphan (CYP2D6), and 1 μmol/L of terfenadine (CYP3A4); reaction time; 15 minutes; reaction temperature: 37° C.; enzyme: pooled human liver microsome 0.2 mg protein/mL; test drug concentration: 1, 5, 10, and 20 μmol/L (4 points).
In a 96-well plate, as a reaction solution, five kinds of substrates, a human liver microsome, and a test drug were added to 50 mmol/L Hepes buffer solution in the aforementioned ratio. A coenzyme NADPH was added to start a metabolic reaction, which is an index. After reacting at 37° C. for 15 minutes, a solution of methanol/acetonitrile (1/1 (v/v)) was added to quench the reaction. After centrifugation at 3000 rpm for 15 minutes, resorufin (CYP1A2 metabolite) in the supernatant was quantitated with a fluorescence multilabel counter, and hydroxylated tolbutamide (CYP2C9 metabolite), 4′-hydroxylated mephenyloin (CYP2C19 metabolite), […], terfenadine in alcohol form (CYP3A4 metabolite) were quantitated with LC/MS/MS.
The case wherein only DMSO (a solvent which dissolved a drug) was added to a reaction system was defined as a control (100%). When a test drug solution was added, the remaining activity (%) at each concentration was calculated, and then IC50 was calculated with a concentration and an inhibition ratio by an inverse estimation using a logistic model.

CYP3A4 = target: T3, CYP3A4 (Homo sapiens, UniProt P08684); experiment: CYP3A4 fluorescence MBI test; type: in vitro ADME; conditions: difference in IC50 with 0 or 30 minutes pre-reaction; CYP3A4 expressed in E. coli, substrate 7-BFC
T3 construct: host or cells: E. coli
Summary of the method: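 E. coli-expressed CYP3A4 debenzylating 5.6 μmol/L 7-BFC to fluorescent 7-HFC (Ex 420/Em 535 nm) in K-Pi pH 7.4 at 25° C, 15 min reaction. NADPH pre-incubation of 0 or 30 min, with 10-fold dilution before reaction. IC50 from 0.625–20 μmol/L (6 points); (+) for an IC50 shift ≥5 μmol/L, (−) for ≤3 μmol/L.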

PI3Kγ [5] = target: T1, PI3Kγ; experiment: PI3Kγ inhibitory activity (Ki value); type: biochemical
Summary of the method: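 Ki derived from IC50 measured at final compound levels of 50–0.05 μmol/L (HTRF read-out; 40 μmol/L ATP, 10 mmol/L MgCl2, 5 mmol/L DTT), IC50 by logistic or two-point linear fit. ATP Km from Lineweaver-Burk over 0.625–80 μmol/L ATP; Ki = IC50/(1+[ATP]/Km).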

PI3Kα = PI3Kα (Homo sapiens, UniProt P42336); experiment: PI3Kα inhibitory activity (Ki value); type: biochemical; conditions: class symbols; read-out: PI3K α Ki
Experimental: (§1) According to Example 2 above, after 80 μg/mL PI-3 kinase γ of the enzyme solution (80 μg/mL PI-3 kinase γ, 10 mmol/L MgCl2, 5 mmol/L DTT) was changed to 0.8 μg/mL PI-3 kinase α, an inhibition ratio was calculated by a method similar to the method for measuring PI3Kγ inhibitory activity, and then defined as the PI3Kα inhibitory activity.
The α inhibitory activity (Ki value) of a compound was evaluated according to the following procedure.
According to Example 4 above, a Km value for PI3Kα was determined to calculate a Ki value.

PI3Kβ = PI3Kβ (Homo sapiens, UniProt P42338); experiment: PI3Kβ inhibitory activity (Ki value); type: biochemical; conditions: class symbols; read-out: PI3K β Ki
Experimental: as §1, with “60” for “0.8”, “β,” for “α, an inhibition ratio was calculated by”, “activity was used to calculate an inhibition ratio, which was” for “activity, and then”, “PI3Kβ” for “PI3Kα”
According to Example 4 above, a Km value for PI3Kβ was determined to calculate a Ki value.

PI3Kδ = PI3Kδ (Homo sapiens, UniProt O00329); experiment: PI3Kδ inhibitory activity (Ki value); type: biochemical; conditions: class symbols; read-out: PI3K δ Ki
Experimental: as §1, with “158” for “0.8”, “δ,” for “α, an inhibition ratio was calculated by”, “activity was used to calculate an inhibition ratio, which was” for “activity, and then”, “PI3Kδ” for “PI3Kα”
According to Example 4 above, a Km value for PI3Kδ was determined to calculate a Ki value.

T2 sequence (Q12809 whole entry): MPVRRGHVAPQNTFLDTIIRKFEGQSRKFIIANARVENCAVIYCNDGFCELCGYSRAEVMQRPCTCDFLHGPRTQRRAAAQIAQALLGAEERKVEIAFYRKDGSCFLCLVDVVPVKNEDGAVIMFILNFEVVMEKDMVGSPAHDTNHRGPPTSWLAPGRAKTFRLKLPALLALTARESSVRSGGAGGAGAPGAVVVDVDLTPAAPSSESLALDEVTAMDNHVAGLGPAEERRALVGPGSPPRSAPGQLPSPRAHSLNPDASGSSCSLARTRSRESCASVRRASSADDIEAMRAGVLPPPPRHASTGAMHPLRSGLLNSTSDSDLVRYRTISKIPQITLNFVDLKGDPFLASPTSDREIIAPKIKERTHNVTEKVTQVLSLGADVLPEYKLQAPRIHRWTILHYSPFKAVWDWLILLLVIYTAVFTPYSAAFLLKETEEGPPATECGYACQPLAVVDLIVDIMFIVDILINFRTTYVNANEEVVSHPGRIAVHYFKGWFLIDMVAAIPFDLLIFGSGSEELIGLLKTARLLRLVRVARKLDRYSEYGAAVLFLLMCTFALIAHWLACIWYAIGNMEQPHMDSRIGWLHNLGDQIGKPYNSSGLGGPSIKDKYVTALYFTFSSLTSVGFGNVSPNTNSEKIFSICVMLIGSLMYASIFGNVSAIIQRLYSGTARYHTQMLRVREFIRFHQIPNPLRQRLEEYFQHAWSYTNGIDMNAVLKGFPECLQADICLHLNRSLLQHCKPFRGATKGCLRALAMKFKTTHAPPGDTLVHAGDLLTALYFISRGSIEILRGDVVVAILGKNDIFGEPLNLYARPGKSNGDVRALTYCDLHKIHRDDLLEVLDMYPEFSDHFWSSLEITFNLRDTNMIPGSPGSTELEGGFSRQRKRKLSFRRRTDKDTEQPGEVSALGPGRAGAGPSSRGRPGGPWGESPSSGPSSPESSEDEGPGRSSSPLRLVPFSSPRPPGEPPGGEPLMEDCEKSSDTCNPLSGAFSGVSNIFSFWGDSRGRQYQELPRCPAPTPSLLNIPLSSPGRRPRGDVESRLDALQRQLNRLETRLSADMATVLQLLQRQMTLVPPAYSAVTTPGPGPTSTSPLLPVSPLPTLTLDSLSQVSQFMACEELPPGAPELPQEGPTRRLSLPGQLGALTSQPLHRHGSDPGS
T1 sequence (P48736 whole entry, species assumed): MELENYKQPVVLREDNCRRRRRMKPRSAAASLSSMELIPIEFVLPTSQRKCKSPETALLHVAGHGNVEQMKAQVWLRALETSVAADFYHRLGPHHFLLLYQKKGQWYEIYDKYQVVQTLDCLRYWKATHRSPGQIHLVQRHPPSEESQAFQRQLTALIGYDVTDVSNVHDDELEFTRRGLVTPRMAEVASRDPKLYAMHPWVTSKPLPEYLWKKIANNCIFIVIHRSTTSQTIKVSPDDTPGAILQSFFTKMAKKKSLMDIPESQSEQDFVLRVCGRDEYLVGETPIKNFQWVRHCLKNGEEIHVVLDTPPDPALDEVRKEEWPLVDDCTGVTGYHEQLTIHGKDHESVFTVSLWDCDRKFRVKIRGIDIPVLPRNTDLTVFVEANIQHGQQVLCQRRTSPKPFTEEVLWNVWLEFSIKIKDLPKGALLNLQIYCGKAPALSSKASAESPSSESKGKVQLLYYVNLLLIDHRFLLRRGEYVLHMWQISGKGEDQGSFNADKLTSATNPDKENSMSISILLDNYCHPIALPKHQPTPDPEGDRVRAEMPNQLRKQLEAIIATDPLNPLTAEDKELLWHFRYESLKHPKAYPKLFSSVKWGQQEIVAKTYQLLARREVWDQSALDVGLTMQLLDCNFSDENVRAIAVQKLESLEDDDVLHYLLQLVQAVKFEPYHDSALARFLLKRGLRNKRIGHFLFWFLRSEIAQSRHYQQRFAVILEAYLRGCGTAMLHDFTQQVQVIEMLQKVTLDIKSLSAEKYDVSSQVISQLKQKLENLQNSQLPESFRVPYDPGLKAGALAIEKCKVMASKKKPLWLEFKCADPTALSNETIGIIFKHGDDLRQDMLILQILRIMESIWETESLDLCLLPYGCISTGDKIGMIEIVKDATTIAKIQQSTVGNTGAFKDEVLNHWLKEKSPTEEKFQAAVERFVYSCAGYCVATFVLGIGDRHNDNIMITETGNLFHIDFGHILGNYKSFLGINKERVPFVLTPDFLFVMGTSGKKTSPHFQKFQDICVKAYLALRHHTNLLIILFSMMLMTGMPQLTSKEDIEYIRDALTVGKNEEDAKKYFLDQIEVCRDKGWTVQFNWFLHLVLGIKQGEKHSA
T3 sequence (P08684 whole entry): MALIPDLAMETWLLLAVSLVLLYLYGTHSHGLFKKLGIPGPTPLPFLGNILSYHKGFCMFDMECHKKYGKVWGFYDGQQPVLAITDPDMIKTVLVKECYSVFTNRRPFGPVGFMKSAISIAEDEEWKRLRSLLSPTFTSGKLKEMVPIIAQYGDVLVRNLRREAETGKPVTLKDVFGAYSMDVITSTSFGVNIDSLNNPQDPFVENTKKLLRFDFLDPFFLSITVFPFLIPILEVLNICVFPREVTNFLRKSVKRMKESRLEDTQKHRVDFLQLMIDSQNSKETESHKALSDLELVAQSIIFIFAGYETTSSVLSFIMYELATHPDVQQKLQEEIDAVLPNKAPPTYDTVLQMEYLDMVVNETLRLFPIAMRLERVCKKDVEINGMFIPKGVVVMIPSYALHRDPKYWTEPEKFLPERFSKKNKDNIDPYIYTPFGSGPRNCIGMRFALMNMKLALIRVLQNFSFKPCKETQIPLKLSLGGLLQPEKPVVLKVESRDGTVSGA
PI3Kα, sequence (P42336 whole entry, species assumed): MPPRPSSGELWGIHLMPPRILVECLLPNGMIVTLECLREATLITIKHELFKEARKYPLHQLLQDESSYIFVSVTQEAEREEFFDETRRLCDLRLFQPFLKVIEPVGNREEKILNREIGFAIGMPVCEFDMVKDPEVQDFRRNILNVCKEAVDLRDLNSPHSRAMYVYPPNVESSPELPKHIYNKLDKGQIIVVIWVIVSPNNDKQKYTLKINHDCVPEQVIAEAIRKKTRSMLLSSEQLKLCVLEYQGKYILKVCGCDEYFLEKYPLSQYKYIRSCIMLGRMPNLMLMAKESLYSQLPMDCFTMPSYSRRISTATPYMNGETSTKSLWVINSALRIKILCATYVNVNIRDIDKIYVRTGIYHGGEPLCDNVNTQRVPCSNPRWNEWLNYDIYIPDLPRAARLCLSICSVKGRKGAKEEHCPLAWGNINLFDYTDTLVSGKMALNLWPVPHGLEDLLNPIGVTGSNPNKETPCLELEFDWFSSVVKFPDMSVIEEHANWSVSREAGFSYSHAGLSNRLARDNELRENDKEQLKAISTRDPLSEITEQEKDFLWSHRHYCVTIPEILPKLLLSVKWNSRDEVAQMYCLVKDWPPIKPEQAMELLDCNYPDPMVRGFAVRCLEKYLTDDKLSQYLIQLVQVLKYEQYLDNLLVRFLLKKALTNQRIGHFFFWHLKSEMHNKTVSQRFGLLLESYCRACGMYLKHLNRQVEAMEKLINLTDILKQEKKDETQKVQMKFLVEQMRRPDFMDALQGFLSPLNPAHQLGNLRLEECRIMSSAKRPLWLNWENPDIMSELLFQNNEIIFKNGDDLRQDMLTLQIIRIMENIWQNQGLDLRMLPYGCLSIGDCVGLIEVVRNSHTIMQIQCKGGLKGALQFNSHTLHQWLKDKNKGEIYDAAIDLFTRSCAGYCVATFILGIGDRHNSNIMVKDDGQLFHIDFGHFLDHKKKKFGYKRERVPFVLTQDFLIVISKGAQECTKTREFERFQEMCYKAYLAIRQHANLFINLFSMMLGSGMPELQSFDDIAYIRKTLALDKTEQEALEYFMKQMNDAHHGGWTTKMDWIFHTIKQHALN
PI3Kα, sequence (P27986 whole entry partner, species assumed): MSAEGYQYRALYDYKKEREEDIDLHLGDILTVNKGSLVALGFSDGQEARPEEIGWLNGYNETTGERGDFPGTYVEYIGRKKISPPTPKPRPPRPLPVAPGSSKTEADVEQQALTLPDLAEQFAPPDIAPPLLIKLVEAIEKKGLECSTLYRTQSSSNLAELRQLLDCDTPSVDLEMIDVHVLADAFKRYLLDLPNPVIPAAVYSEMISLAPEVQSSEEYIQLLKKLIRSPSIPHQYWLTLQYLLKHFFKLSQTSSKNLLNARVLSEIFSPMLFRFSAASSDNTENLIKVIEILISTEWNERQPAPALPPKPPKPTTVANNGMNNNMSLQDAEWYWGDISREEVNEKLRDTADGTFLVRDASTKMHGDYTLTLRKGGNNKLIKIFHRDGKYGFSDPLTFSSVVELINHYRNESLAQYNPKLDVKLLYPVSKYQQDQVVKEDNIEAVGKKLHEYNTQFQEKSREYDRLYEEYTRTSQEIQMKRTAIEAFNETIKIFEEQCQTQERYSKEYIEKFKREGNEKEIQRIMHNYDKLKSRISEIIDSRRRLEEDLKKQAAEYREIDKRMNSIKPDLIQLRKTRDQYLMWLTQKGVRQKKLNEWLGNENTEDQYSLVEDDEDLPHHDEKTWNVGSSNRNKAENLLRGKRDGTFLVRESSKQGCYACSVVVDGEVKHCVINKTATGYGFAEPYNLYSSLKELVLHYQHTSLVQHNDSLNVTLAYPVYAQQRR

inhibition at 10 µM (PI3Kγ [1]) [%] | solubility at 16 h [2] [µM] | hLMS_ox(at 0.5 μM) % [3] [%] | IC50 at 15 min [4] [µM] | SMILES | other results
86 | 24.9 (≈ 13.1 µg/mL) | 99 |  | COc1cc(N2CCc3nc(NC(=O)Nc4ccccc4C(=O)NCC(C)(C)O)sc3C2)nc(OC)n1 [Compound I-158] | inhibition at 1 µM (AKT phosphorylation): ≥ 95%; inhibition at 10 min, 1 µM (hERG channel (IKr)): 9.2%
≥ 95 | > 50 | 94.5 |  | COc1cc(N2CCc3nc(NC(=O)Nc4ccccc4C(=O)NC(C)CN(C)C)sc3C2)nc(OC)n1 (stereo not drawn) [Compound I-137] | inhibition at 1 µM (AKT phosphorylation): 85%
 | 42.6 (≈ 21.8 µg/mL) | 98 | ≥ 10 | COc1ccc(N2CCc3nc(NC(=O)Nc4ccccc4C(=O)NC(C)CO)sc3C2)cc1OC (stereo not drawn) [Compound I-107] | inhibition at 10 min, 1 µM (hERG channel (IKr)): 5.4%
90 | 32.3 (≈ 16.3 µg/mL) |  | ≥ 10 | COc1cc(N2CCc3nc(NC(=O)NC4CCCCC4C(=O)NC(C)C)sc3C2)nc(OC)n1 (stereo not drawn) [Compound I-31] | 
92 | 10.3 (≈ 4.92 µg/mL) |  |  | C[C@@H](CO)NC(=O)c1ccccc1NC(=O)Nc1nc2c(s1)CN(c1cncc(C#N)c1)CC2 [Compound I-189] | MBI (CYP3A4): (−) (When 3 μmol/L or less, the compound is shown as (−))
≥ 95 | > 50 | 87.2 | > 20 | COc1cc(N2CCc3nc(NC(=O)Nc4ccccc4C(=O)NC(C)(C)C(=O)O)sc3C2)nc(OC)n1 [Compound I-19] | inhibition at 10 min, 10 µM (hERG channel (IKr); compound 10 μM): 9.5%
≥ 95 | > 50 | 104 | ≥ 10 | COc1cc(N2CCc3nc(NC(=O)Nc4ccccc4C(=O)NC4CCNCC4)sc3C2)nc(OC)n1 [Compound I-202] | 
≥ 95 | 30.1 (≈ 14.6 µg/mL) | 85.8 |  | CCNC(=O)c1ccncc1NC(=O)Nc1nc2c(s1)CN(c1cnc(OC)c(OC)c1)CC2 [Compound I-103] | inhibition at 10 min, 1 µM (hERG channel (IKr)): 3.6%
68 | > 50 |  | > 20 | COc1cc(N2CCc3nc(NC(=O)Nc4ccccc4C(=O)N4CCOCC4)sc3C2)nc(OC)n1 [Compound I-10] | MBI (CYP3A4): (−) (When 3 μmol/L or less, the compound is shown as (−))
 | > 50 |  | > 20 | COc1cc(N2CCc3nc(NC(=O)Nc4ccccc4CNC(C)C)sc3C2)nc(OC)n1 [Compound I-84] | 
≥ 95 | 19.6 (≈ 9.77 µg/mL) | 88.1 |  | COc1cc(N2CCc3nc(NC(=O)Nc4ccccc4C(=O)NN(C)C)sc3C2)nc(OC)n1 [Compound I-182] | inhibition at 1 µM (AKT phosphorylation): ≥ 95%; inhibition at 10 min, 1 µM (hERG channel (IKr)): 4.9%
 | 36.1 (≈ 17.2 µg/mL) |  | > 20 | CCOC(=O)[C@H]1CCC[C@H]1NC(=O)Nc1nc2c(s1)CN(c1cc(OC)nc(OC)n1)CC2 [Compound I-149] | 
72 | 12.3 (≈ 5.69 µg/mL) |  |  | COc1cc(N2CCc3nc(NC(=O)Nc4ccsc4C(=O)O)sc3C2)nc(OC)n1 [Compound I-4] | hLMS_ox(at 2 μM) % ([3]; compound 2 μM): 103%
≥ 95 | 17.5 (≈ 8.23 µg/mL) | 92.3 |  | CC(CO)NC(=O)c1ccccc1NC(=O)Nc1nc2c(s1)CN(c1ccc(F)cn1)CC2 (stereo not drawn) [Compound I-120] | 
91 | 28.1 (≈ 13.2 µg/mL) | 109 |  | C[C@@H](CO)NC(=O)c1ccccc1NC(=O)Nc1nc2c(s1)CN(c1cc[nH]c(=O)c1)CC2 [Compound I-183] | Ki (PI3Kγ [5]; class symbols, read-out: PI3K γ Ki): ≤ 0.3 µM; Ki (PI3Kγ [5]; read-out: PI3Kγ Ki value): 0.09 µM; Ki (PI3Kα): > 3 µM; Ki (PI3Kβ): > 3 µM; Ki (PI3Kδ): > 3 µM
≥ 95 | 14 (≈ 7.27 µg/mL) |  | ≥ 10 | CC(C)NC(=O)c1ccccc1NC(=O)Nc1nc2c(s1)CN(c1cnc(N)c(C(F)(F)F)c1)CC2 [Compound I-212] | inhibition at 1 µM (AKT phosphorylation): ≥ 95%
